Test system: Anthonomus grandis (Cotton Boll Weevil)
Assay: Anthonomus grandis (Cotton Boll Weevil) test on treated cotton plants, mortality
Assay type: in vivo
Procedure: Anthonomus grandis (Cotton Boll Weevil)
Cotton plants are treated (100 mL spray volume) and 10 adult weevils are added to each plant (2 replicates per concentration). 5 days after infestation the mortality is assessed.
Compounds are tested according to the above method.

[1] = application rate 0.01 ppm, treated cotton plants, 10 adult weevils per plant, mortality 5 days after infestation
[2] = application rate 0.05 ppm, treated cotton plants, 10 adult weevils per plant, mortality 5 days after infestation
[3] = application rate 0.2 ppm, treated cotton plants, 10 adult weevils per plant, mortality 5 days after infestation
[4] = application rate 0.8 ppm, treated cotton plants, 10 adult weevils per plant, mortality 5 days after infestation
[5] = application rate 3 ppm, treated cotton plants, 10 adult weevils per plant, mortality 5 days after infestation
[6] = application rate 12.5 ppm, treated cotton plants, 10 adult weevils per plant, mortality 5 days after infestation
[7] = application rate 50 ppm, treated cotton plants, 10 adult weevils per plant, mortality 5 days after infestation
[8] = comparative example, application rate 0.8 ppm, Anthonomus grandis (Cotton boll weevil)
[9] = comparative example, application rate 3 ppm, Anthonomus grandis (Cotton boll weevil)
[10] = comparative example, application rate 12.5 ppm, Anthonomus grandis (Cotton boll weevil)

Compound | Control/% [1] [%] | Control/% [2] [%] | Control/% [3] [%] | Control/% [4] [%] | Control/% [5] [%] | Control/% [6] [%] | Control/% [7] [%] | Control/% [8] [%] | Control/% [9] [%] | Control/% [10] [%]
Cc1cc(C2=NO[C@@](c3cc(Cl)cc(Cl)c3)(C(F)(F)F)C2)ccc1C(=O)N[C@@H]1CON(CC(F)(F)F)C1=O [Compound A16] | 0 | 55 | 100 | 100 | 100 | – | – | – | – | –
CCN1OC[C@@H](NC(=O)c2ccc(C3=NO[C@@](c4cc(Cl)c(F)c(Cl)c4)(C(F)(F)F)C3)cc2Cl)C1=O [Compound A19] | – | – | 60 | 30 | 85 | 95 | 100 | – | – | –
Cc1cc(C2=NOC(c3cc(Cl)cc(Cl)c3)(C(F)(F)F)C2)ccc1C(=O)N[C@@H]1CON(Cc2ccccc2)C1=O (stereo partly drawn) [Reference compound, reference compound] | – | – | – | – | – | – | – | 10 | 30 | 30
CCN1OC[C@@H](NC(=O)c2ccc(C3=NO[C@@](c4cc(Cl)c(F)c(Cl)c4)(C(F)(F)F)C3)cc2C)C1=O [Compound A20] | – | – | 15 | 60 | 100 | 100 | 100 | – | – | –
Cc1cc(C2=NOC(c3cc(Cl)cc(Cl)c3)(C(F)(F)F)C2)ccc1C(=O)NC1CON(CC(F)F)C1=O (mixture of isomers) [Compound A6] | 35 | 50 | 95 | 100 | 100 | – | – | – | – | –
CCN1OCC(NC(=O)c2ccc(C3=NOC(c4cc(Cl)cc(Cl)c4)(C(F)(F)F)C3)cc2C)C1=O (mixture of isomers) [Compound A9] | – | – | 25 | 15 | 75 | 100 | 100 | – | – | –
Cc1cc(C2=NOC(c3cc(Cl)cc(Cl)c3)(C(F)(F)F)C2)ccc1C(=O)NC1CON(C)C1=O (mixture of isomers) [Compound A2] | – | – | 45 | 80 | 100 | 100 | 100 | – | – | –
Cc1cc(C2=NOC(c3cc(Cl)cc(Cl)c3)(C(F)(F)F)C2)ccc1C(=O)NC1CON(CC(F)(F)F)C1=O (mixture of isomers) [Compound A21] | – | – | 70 | – | – | 100 | 100 | – | – | –
CCN1OC[C@@H](NC(=O)c2ccc(C3=NO[C@@](c4cc(Cl)cc(Cl)c4)(C(F)(F)F)C3)cc2C)C1=O [Compound A17] | – | – | 20 | 50 | 100 | 100 | 100 | – | – | –
CCN1OC[C@@H](NC(=O)c2ccc(C3=NO[C@@](c4cc(Cl)cc(C(F)(F)F)c4)(C(F)(F)F)C3)c3ccccc23)C1=O [Compound A18] | – | – | 0 | 40 | 30 | 35 | 100 | – | – | –
Cc1cc(C2=NOC(c3cc(Cl)c(Cl)c(Cl)c3)(C(F)(F)F)C2)ccc1C(=O)NC1CON(CC(F)(F)F)C1=O (mixture of isomers) [Compound A1] | – | – | 45 | 90 | 100 | 100 | 95 | – | – | –
Cc1cc(C2=NO[C@@](c3cc(Cl)cc(Cl)c3)(C(F)(F)F)C2)ccc1C(=O)N[C@H]1CON(CC(F)(F)F)C1=O [Compound A3] | – | – | 60 | 60 | 100 | 100 | 100 | – | – | –
Cc1cc(C2=NOC(c3cc(Cl)cc(Cl)c3)(C(F)(F)F)C2)ccc1C(=O)N[C@@H]1CON(CC(F)(F)F)C1=O (stereo partly drawn) [Compound of the invention] | – | – | – | – | – | – | – | 100 | 100 | 100
CCN1OCC(NC(=O)c2ccc(C3=NOC(c4cc(Cl)c(F)c(Cl)c4)(C(F)(F)F)C3)cc2C)C1=O (mixture of isomers) [Compound A5] | – | – | 40 | 40 | 95 | 100 | 100 | – | – | –
Cc1cc(C2=NOC(c3cc(Cl)cc(Cl)c3)(C(F)(F)F)C2)ccc1C(=O)NC1CON(CC(F)(F)F)C1=O (mixture of isomers) [Compound A8] | 20 | 35 | 70 | 100 | 100 | – | – | – | – | –
